{
  "source": "patent US20180065917A1",
  "about": "“IMMUNE CHECKPOINT INHIBITORS, COMPOSITIONS AND METHODS THEREOF” (Polaris Pharmaceuticals, Inc., priority 2016, published 2018)",
  "note": "pIC50: −log10 of the molar value. Counter-ions that a name gives are not always drawn.",
  "data": [
    {"tested_on": "not given", "assay": "not given", "settings": "not given", "values": [
      {"compound": "Cc1c(COc2ccc(CN3CCCC[C@H]3C(=O)O)cc2Br)cccc1-c1cccc(COc2ccc(CN3CCCC[C@H]3C(=O)O)cc2Br)c1C", "note": "[Example 1, (2S,2′S)-1,1′-(((((2,2′-dimethyl-[1,1′-biphenyl]-3,3′-diyl)bis(methylene))bis(oxy))bis(3-bromo-4,1-phenylene))bis(methylene))bis(piperidine-2-carboxylic acid)]", "melting point": "222 to 226 °C"},
      {"compound": "Cc1c(COc2ccc(CN[C@H](CO)C(=O)O)cc2Br)cccc1-c1cccc(COc2ccc(CN[C@H](CO)C(=O)O)cc2Br)c1C", "note": "(as salt: trifluoroacetic acid salt) [Example 17, (2R,2′R)-2,2′-((((((2,2′-Dimethyl-[1,1′-biphenyl]-3,3′-diyl)bis(methylene))bis(oxy))bis(3-bromo-4,1-phenylene))bis(methylene))bis(azanediyl))bis(3-hydroxypropanoic acid) di-trifluoroacetic acid salt]", "melting point": "156 to 160 °C"},
      {"compound": "Cc1c(COc2ccc(CN3C[C@@H](O)C[C@H]3C(=O)O)cc2Br)cccc1-c1cccc(COc2ccc(CN3C[C@@H](O)C[C@H]3C(=O)O)cc2Br)c1C", "note": "[Example 7, (2S,2'S,4S,4′S)-1,1′-(((((2,2′-Dimethyl-[1,1′-biphenyl]-3,3′-diyl)bis(methylene))bis(oxy))bis(3-bromo-4,1-phenylene))bis(methylene))bis(4-hydroxypyrrolidine-2-carboxylic acid)]", "melting point": "260 to 264 °C"},
      {"compound": "Cc1c(COc2ccc(CN3CCCC[C@H]3C(=O)O)cc2F)cccc1-c1cccc(COc2ccc(CN3CCCC[C@H]3C(=O)O)cc2F)c1C", "note": "[Example 19, (2S,2′S)-1,1′-(((((2,2′-Dimethyl-[1,1′-biphenyl]-3,3′-diyl)bis(methylene))bis(oxy))bis(3-fluoro-4,1-phenylene))bis(methylene))bis(piperidine-2-carboxylic acid)]", "melting point": "205 to 209 °C"},
      {"compound": "CSc1cc(CN2CCCC[C@H]2C(=O)O)ccc1OCc1cccc(-c2cccc(COc3ccc(CN4CCCC[C@H]4C(=O)O)cc3SC)c2C)c1C", "note": "(as salt: trifluoroacetic acid salt) [Example 28, (2S,2′S)-1,1′-(((((2,2′-Dimethyl-[1,1′-biphenyl]-3,3′-diyl)bis(methylene))bis(oxy))bis(3-(methylthio)-4,1-phenylene))bis(methylene))bis(piperidine-2-carboxylic acid) di-trifluoroacetic acid salt]", "melting point": "134 to 138 °C"},
      {"compound": "Cc1c(COc2ccc(CNCCO)cc2Br)cccc1-c1cccc(COc2ccc(CNCCO)cc2Br)c1C", "note": "(as salt: trifluoroacetic acid salt) [Example 5, 2,2′-((((((2,2′-Dimethyl-[1,1′-biphenyl]-3,3′-diyl)bis(methylene))bis(oxy))bis(3-bromo-4,1-phenylene))bis(methylene))bis(azanediyl))bis(ethan-1-ol) di-trifluoroacetic acid salt]", "melting point": "136 to 140 °C"},
      {"compound": "Cc1c(COc2ccc(CN(CCO)CCO)cc2Br)cccc1-c1cccc(COc2ccc(CN(CCO)CCO)cc2Br)c1C", "note": "(as salt: trifluoroacetic acid salt) [Example 31, 2,2′,2″,2′″-((((((2,2′-Dimethyl-[1,1′-biphenyl]-3,3′-diyl)bis(methylene))bis(oxy))bis(3-bromo-4,1-phenylene))bis(methylene))bis(azanetriyl))tetrakis(ethan-1-ol) di-trifluoroacetic acid salt]", "melting point": "118 to 122 °C"},
      {"compound": "Cc1c(COc2ccc(CN(CC(=O)O)CC(=O)O)cc2Br)cccc1-c1cccc(COc2ccc(CN(CC(=O)O)CC(=O)O)cc2Br)c1C", "note": "(as salt: trifluoroacetic acid salt) [Example 30, 2,2′,2″,2′″-((((((2,2′-Dimethyl-[1,1′-biphenyl]-3,3′-diyl)bis(methylene))bis(oxy))bis(3-bromo-4,1-phenylene))bis(methylene))bis(azanetriyl))tetraacetic acid di-trifluoroacetic acid salt]", "melting point": "223 to 227 °C"},
      {"compound": "Cc1c(COc2ccc(CN3CCCC[C@H]3C(=O)O)cc2C#N)cccc1-c1cccc(COc2ccc(CN3CCCC[C@H]3C(=O)O)cc2C#N)c1C", "note": "(as salt: trifluoroacetic acid salt) [Example 34, (2S,2′S)-1,1′-(((((2,2′-dimethyl-[1,1′-biphenyl]-3,3′-diyl)bis(methylene))bis(oxy))bis(3-cyano-4,1-phenylene))bis(methylene))bis(piperidine-2-carboxylic acid) di-trifluoroacetic acid salt]", "melting point": "196 to 200 °C"},
      {"compound": "Cc1c(COc2ccc(CNC(C)(CO)CO)cc2Br)cccc1-c1cccc(COc2ccc(CNC(C)(CO)CO)cc2Br)c1C", "note": "(as salt: trifluoroacetic acid salt) [Example 33, 2,2′-((((((2,2′-Dimethyl-[1,1′-biphenyl]-3,3′-diyl)bis(methylene))bis(oxy))bis(3-bromo-4,1-phenylene))bis(methylene))bis(azanediyl))bis(2-methylpropane-1,3-diol) di-trifluoroacetic acid salt]", "melting point": "134 to 138 °C"},
      {"compound": "CCc1cc(CN2CCCC[C@H]2C(=O)O)ccc1OCc1cccc(-c2cccc(COc3ccc(CN4CCCC[C@H]4C(=O)O)cc3CC)c2C)c1C", "note": "(as salt: trifluoroacetic acid salt) [Example 27, (2S,2′S)-1,1′-(((((2,2′-Dimethyl-[1,1′-biphenyl]-3,3′-diyl)bis(methylene))bis(oxy))bis(3-ethyl-4,1-phenylene))bis(methylene))bis(piperidine-2-carboxylic acid) di-trifluoroacetic acid salt]", "melting point": "131 to 135 °C"},
      {"compound": "Cc1c(COc2ccc(CNC(C)(C)C(=O)O)cc2Br)cccc1-c1cccc(COc2ccc(CNC(C)(C)C(=O)O)cc2Br)c1C", "note": "(as salt: trifluoroacetic acid salt) [Example 14, 2,2′-((((((2,2′-Dimethyl-[1,1′-biphenyl]-3,3′-diyl)bis(methylene))bis(oxy))bis(3-bromo-4,1-phenylene))bis(methylene))bis(azanediyl))bis(2-methylpropanoic acid) di-trifluoroacetic acid salt]", "melting point": "230 to 234 °C"},
      {"compound": "Cc1c(COc2ccc(CNC(CO)CO)cc2Br)cccc1-c1cccc(COc2ccc(CNC(CO)CO)cc2Br)c1C", "note": "(as salt: trifluoroacetic acid salt) [Example 32, 2,2′-((((((2,2′-Dimethyl-[1,1′-biphenyl]-3,3′-diyl)bis(methylene))bis(oxy))bis(3-bromo-4,1-phenylene))bis(methylene))bis(azanediyl))bis(propane-1,3-diol) di-trifluoroacetic acid salt]", "melting point": "148 to 152 °C"},
      {"compound": "Cc1c(COc2ccc(CN[C@H](C)C(=O)O)cc2Br)cccc1-c1cccc(COc2ccc(CN[C@H](C)C(=O)O)cc2Br)c1C", "note": "(as salt: trifluoroacetic acid salt) [Example 16, (2R,2′R)-2,2′-((((((2,2′-Dimethyl-[1,1′-biphenyl]-3,3′-diyl)bis(methylene))bis(oxy))bis(3-bromo-4,1-phenylene))bis(methylene))bis(azanediyl))dipropionic acid di-trifluoroacetic acid salt]", "melting point": "186 to 190 °C"},
      {"compound": "Cc1c(COc2ccc(CN[C@@H](C(=O)O)[C@H](C)O)cc2Br)cccc1-c1cccc(COc2ccc(CN[C@@H](C(=O)O)[C@H](C)O)cc2Br)c1C", "note": "(as salt: trifluoroacetic acid salt) [Example 18, (2R,2′R,3S,3′S)-2,2′-((((((2,2′-Dimethyl-[1,1′-biphenyl]-3,3′-diyl)bis(methylene))bis(oxy))bis(3-bromo-4,1-phenylene))bis(methylene))bis(azanediyl))bis(3-hydroxybutanoic acid) di-trifluoroacetic acid salt]", "melting point": "227 to 231 °C"},
      {"compound": "C#Cc1cc(CN2CCCC[C@H]2C(=O)O)ccc1OCc1cccc(-c2cccc(COc3ccc(CN4CCCC[C@H]4C(=O)O)cc3C#C)c2C)c1C", "note": "(as salt: trifluoroacetic acid salt) [Example 26, (2S,2′S)-1,1′-(((((2,2′-Dimethyl-[1,1′-biphenyl]-3,3′-diyl)bis(methylene))bis(oxy))bis(3-ethynyl-4,1-phenylene))bis(methylene))bis(piperidine-2-carboxylic acid) di-trifluoroacetic acid salt]", "melting point": "175 °C (dec.)"},
      {"compound": "Cc1c(COc2ccc(CN[C@@H](C)C(=O)O)cc2Br)cccc1-c1cccc(COc2ccc(CN[C@@H](C)C(=O)O)cc2Br)c1C", "note": "(as salt: trifluoroacetic acid salt) [Example 15, (2S,2′S)-2,2′-((((((2,2′-Dimethyl-[1,1′-biphenyl]-3,3′-diyl)bis(methylene))bis(oxy))bis(3-bromo-4,1-phenylene))bis(methylene))bis(azanediyl))dipropionic acid di-trifluoroacetic acid salt]", "melting point": "243 to 247 °C"},
      {"compound": "Cc1c(COc2ccc(CN3CCCC[C@H]3C(=O)O)cc2C(F)F)cccc1-c1cccc(COc2ccc(CN3CCCC[C@H]3C(=O)O)cc2C(F)F)c1C", "note": "(as salt: trifluoroacetic acid salt) [Example 29, (2S,2′S)-1,1′-(((((2,2′-Dimethyl-[1,1′-biphenyl]-3,3′-diyl)bis(methylene))bis(oxy))bis(3-(difluoromethyl)-4,1-phenylene))bis(methylene))bis(piperidine-2-carboxylic acid) di-trifluoroacetic acid salt]", "melting point": "142 to 146 °C"}
    ]},
    {"target": "T1, PD-L1/PD-1 complex formation (Homo sapiens, UniProt Q9NZQ7)", "T1 construct": "purchased BPS Bioscience", "T1 sequence (Q9NZQ7 19-239 limits assumed, one chain of several)": "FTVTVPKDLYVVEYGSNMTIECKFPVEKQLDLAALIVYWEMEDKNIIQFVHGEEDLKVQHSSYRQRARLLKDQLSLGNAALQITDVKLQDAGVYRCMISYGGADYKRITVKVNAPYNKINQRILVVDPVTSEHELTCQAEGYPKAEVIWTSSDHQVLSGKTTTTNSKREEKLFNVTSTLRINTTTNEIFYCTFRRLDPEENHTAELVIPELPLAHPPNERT", "assay": "PD-L1/PD-1 Interaction Assay (ELISA platform)", "assay_type": "binding", "settings": "human PD-1-Fc coated plates, PD-L1-Fc-biotin 0.1 μg/ml, compounds pre-incubated 2 hours", "protocol": "The ability of compounds to block PD-L1/PD-1 complex formation was evaluated using biochemical interaction assay based on the ELISA platform.\nEIA/RIA high binding 96-well plates (Costar) were coated with human PD-1-Fc protein diluted in PBS to 0.5 μg/ml overnight at 4° C. The PD-1-Fc coated plates were washed in PBST and blocked in blocking buffer (2% BSA in PBST). Serially diluted compounds were pre-incubated with PD-L1-Fc-biotin (0.1 μg/ml final) for 2 hours on a shaker at room temperature. The PD-1-Fc coated plates were washed with PBST and solutions containing PD-L1 and compounds were added to the plates. The PD-1-Fc coated plates were incubated with PD-L1 and compound solution for 2 hours on a shaker at room temperature. After the incubation unbound PD-L1 was washed away with PBST and plates were incubated with the blocking buffer for 10 minutes. The bound PD-L1-Fc-biotin was detected with streptavidin-HRP and TMB substrate. The plates were read at OD450 nm in a plate reader (i3 from Molecular Devices) and percentages of inhibition of PD-L1/PD-1 complex formation were calculated.\nPD-1-Fc protein was made at Polaris and PD-L1-Fc was purchased from BPS Bioscience.", "values": [
      {"compound": "Cc1c(COc2ccc(CN3CCCC[C@H]3C(=O)O)cc2Br)cccc1-c1cccc(COc2ccc(CN3CCCC[C@H]3C(=O)O)cc2Br)c1C", "note": "[Example 1, (2S,2′S)-1,1′-(((((2,2′-dimethyl-[1,1′-biphenyl]-3,3′-diyl)bis(methylene))bis(oxy))bis(3-bromo-4,1-phenylene))bis(methylene))bis(piperidine-2-carboxylic acid)]", "pIC50": "8.00 to 10.00"},
      {"compound": "Cc1c(COc2ccc(CN3C[C@@H](O)C[C@H]3C(=O)O)cc2Br)cccc1-c1cccc(COc2ccc(CN3C[C@@H](O)C[C@H]3C(=O)O)cc2Br)c1C", "note": "[Example 7, (2S,2'S,4S,4′S)-1,1′-(((((2,2′-Dimethyl-[1,1′-biphenyl]-3,3′-diyl)bis(methylene))bis(oxy))bis(3-bromo-4,1-phenylene))bis(methylene))bis(4-hydroxypyrrolidine-2-carboxylic acid)]", "pIC50": "8.00 to 10.00"},
      {"compound": "Cc1c(COc2ccc(CN3CCCC[C@H]3C(=O)O)cc2F)cccc1-c1cccc(COc2ccc(CN3CCCC[C@H]3C(=O)O)cc2F)c1C", "note": "[Example 19, (2S,2′S)-1,1′-(((((2,2′-Dimethyl-[1,1′-biphenyl]-3,3′-diyl)bis(methylene))bis(oxy))bis(3-fluoro-4,1-phenylene))bis(methylene))bis(piperidine-2-carboxylic acid)]", "pIC50": "6.00 to 6.96"}
    ]}
  ]
}
